Tests used:
[1] = cited from earlier work
[2] = system: Vascular endothelial cells (GM07373A); test: Fluorescent intensity of vascular endothelial cells injured by hydrogen peroxide plus glucose, 24-wells plate, graphic analysis software method; type: cell-based, cattle; conditions: for Fluorescent intensity compared with the hydrogen peroxide plus glucose added system: sample further added to hydrogen peroxide plus glucose
Description: Vascular endothelial cells (GM07373A) subcultured with 10% FBS added EMEM were separated with a trypsin-EDTA solution. To 1.5 ml of the solution of the cells floated on 10% FBS added EMEM was added 9 ml of 10% FBS added EMEM and the resultant mixture was placed in a laboratory dish having a diameter of 9 cm and pre-cultivation was conducted at 37° C. for 3-4 days under an atmosphere of 5% carbon dioxide. Vascular endothelial cells in the culture broth were separated with a trypsin-EDTA solution and floated on 10% FBS added EMEM. 1 ml of the floated cell solution (number of cell: 0.7-0.9×10^5 cell/ml) was poured into each well of 24-wells plate and the main cultivation was conducted at 37° C. for 2 days under an atmosphere of 5% carbon dioxide. After removal of the culture medium, 0.4% FBS added EMEM was added in an amount of 500 μl per well to make the cells in starved state and cultivation was conducted at 37° C. over a night under an atmosphere of 5% carbon dioxide. A sample solution and 10 μl of an aqueous glucose solution (200 mg/ml) were added and cultivation was conducted at 37° C. for 2 hours under an atmosphere of 5% carbon dioxide. After removal of the culture medium, A Hanks' solution (a product of Nihon Pharmaceutical Co., Ltd.) was added to the wells in the amount of 1 ml per well for twice washing. After removal of the solution, a dye solution containing hydrogen peroxide (or a dye solution not containing hydrogen peroxide) was added in the amount of 300 μl per well and cultivation was conducted at 37° C. for 30 minutes under an atmosphere of 5% carbon dioxide. The dye solution was removed to measure the fluorescent intensity of the cell.
GM07373A is a cattle's aortic vascular endothelial cell strain, “Repository No. GM07373A” purchased from Coriel Human Genetic Cell Repository in U.S.A. The dye solution containing hydrogen peroxide was prepared by mixing 50 μg of the solution of fluorescent pigment (“C-6827”, a product of Molecular Probe Company) dissolved in 90 μl of DMSO with 9 ml of the Hanks' solution and adding 90 μl of 0.3% hydrogen peroxide thereto. Hydrogen peroxide was not added for the control test.
As a sample solution, there were used methanol solutions of astaxanthin (a product of Sigma Company) in 0.053 mg/ml and 0.0053 mg/ml, methanol solutions of α-tocopherol (a product of Wako Pure Chemical Industries, Ltd.) in 0.25 mg/ml and 0.025 mg/ml and methanol solutions of tocotrienol (a product of Sigma Company) in 0.25 mg/ml and 0.025 mg/ml. 10 μl of each of the sample solution was added to 500 μl of the culture medium.
The fluorescent intensity was measured at the optional three places under 100 times magnifications using a Leica stereoscopic fluorescence microscope “MZ FL III” (having a Leica macro fluorescence apparatus having a “GFP” attachment) and a filter set (name): GEP Plant fluorescence (GFP2) (excitation filter: 480/40 nm, absorption filter: 510 nm). Each of the pictures was captured by a CDD camera and converted into gray intensity % to measure the fluorescent intensity. The fluorescent intensity was measured for three places per well and the average value was calculated. Also, 3-4 wells were prepared for each kind of sample.
The system where astaxanthin has added is one where astaxanthin in addition to hydrogen peroxide plus glucose was added. The period of time for pre-cultivation was […] and the number of cells was 0.84×10^5 cell per well.
The tocotrienol or α-tocopherol added system is one where tocotrienol or α-tocopherol in addition to hydrogen peroxide plus glucose was added. The period of time for pre-cultivation was 3 days and the number of cells was 0.89×10^5 cell per well.

[3] = specimen 0.5 μg/ml added in addition to hydrogen peroxide plus glucose
[4] = specimen 5.0 μg/ml added in addition to hydrogen peroxide plus glucose

Row | Compound | Antioxidative action, times as strong as vitamin E ([1]; relative to vitamin E) | Antioxidative action, times as strong as β-carotene ([1]; relative to β-carotene) | Fluorescent intensity (%) ([2]; astaxanthin 0.104 μg/ml added in addition to hydrogen peroxide plus glucose) | Fluorescent intensity (%) ([2]; astaxanthin 1.04 μg/ml added in addition to hydrogen peroxide plus glucose) | Fluorescent intensity compared with the hydrogen peroxide plus glucose added system [2] | Antioxidative action, times as strong as tocopherol ([1]; relative to tocopherol) | Fluorescent intensity (%) [2, 3] [%] | Fluorescent intensity (%) [2, 4] [%]
1 | CC1=C(/C=C/C(C)=C/C=C/C(C)=C/C=C/C=C(C)/C=C/C=C(C)/C=C/C2=C(C)C(=O)C(O)CC2(C)C)C(C)(C)CC(O)C1=O (stereo not drawn) [Astaxanthin, 3,3′-dihydroxy-β,β-carotene-4,4′-dione] | about 1000 times | about 40 times | 2.55 | 1.93 | less fluorescent intensity than the hydrogen peroxide plus glucose added system |  |  | 
2 | tocotrienol [Tocotorienol] |  |  |  |  | less fluorescent intensity than the hydrogen peroxide plus glucose added system | about 50 times | 4.35 | 4.40
3 | Cc1c(C)c2c(c(C)c1O)CC[C@@](C)(CCC[C@H](C)CCC[C@H](C)CCCC(C)C)O2 [α-Tocopherol, α-tocopherol] |  |  |  |  | less fluorescent intensity than the hydrogen peroxide plus glucose added system |  | 4.74 | 4.32

Source: patent US20120004297A1, “Agent for alleviating vascular failure” (Naoki HIGASHI, priority 2005, published 2012)
